Earlier results, collected in patent publication US20200306268A1, “VITAMIN COMPOSITION” (Tempus Bio Technologies LLC, priority 2019, published 2020).

In the case of C=C1CC[C@H](O)C/C1=C/C=C1\CCC[C@]2(C)[C@@H]([C@H](C)CCCC(C)C)CC[C@@H]12 [vitamin D3, (3β,5Z,7E)-9,10-secocholesta-5,7,10(19)-trien-3-ol], the “solubility in MCT oil” value (MCT oil) is listed as “very soluble” and the solubility in water (water) is listed as “not soluble”.
